#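 Compound exposure: 48 hours, 5 concentrations, 96-well plates. GI50 is the concentration that inhibits growth by half.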 Calls of active or inactive are those of the source. Rule as the data show it: active = GI50 up to about 1.1 µM and inactive = higher.
# Experiments:
# Assay in all cases: DTP human tumour cell line panel, 48 h
# 786-0 = test system: 786-0
# A498 = test system: A498
# A549 = test system: A549
# ACHN = test system: ACHN
# CAKI-1 = test system: CAKI-1
# CCRF-CEM = test system: CCRF-CEM
# COLO 205 = test system: COLO 205
# DMS-114 = test system: DMS-114
# EKVX = test system: EKVX
# HCC 2998 = test system: HCC 2998
# HCT-116 = test system: HCT-116
# HCT-15 = test system: HCT-15
# HL-60 = test system: HL-60
# HOP-18 = test system: HOP-18
# HOP-62 = test system: HOP-62
# HOP-92 = test system: HOP-92
# HT-29 = test system: HT-29
# IGROV-1 = test system: IGROV-1
# K562 = test system: K562
# KM-20L2 = test system: KM-20L2
# KM12 = test system: KM12
# LOX IMVI = test system: LOX IMVI
# LXFL 529 = test system: LXFL 529
# M14 = test system: M14
# M19-MEL = test system: M19-MEL
# MOLT-4 = test system: MOLT-4
# Malme-3M = test system: Malme-3M
# NCI-H226 = test system: NCI-H226
# NCI-H460 = test system: NCI-H460
# OVCAR-3 = test system: OVCAR-3
# OVCAR-4 = test system: OVCAR-4
# OVCAR-5 = test system: OVCAR-5
# OVCAR-8 = test system: OVCAR-8
# RPMI-8226 = test system: RPMI-8226
# RXF 393 = test system: RXF 393
# RXF 631 = test system: RXF 631
# SF-268 = test system: SF-268
# SF-295 = test system: SF-295
# SF-539 = test system: SF-539
# SK-MEL-28 = test system: SK-MEL-28
# SK-MEL-2 = test system: SK-MEL-2
# SN12C = test system: SN12C
# SNB-19 = test system: SNB-19
# SNB-75 = test system: SNB-75
# SNB-78 = test system: SNB-78
# SR = test system: SR
# SW-620 = test system: SW-620
# TK-10 = test system: TK-10
# U-251 = test system: U-251
# UACC-257 = test system: UACC-257
# UACC-62 = test system: UACC-62
# UO-31 = test system: UO-31
# XF498 = test system: XF498
# DLD-1 = test system: DLD-1
# DMS-273 = test system: DMS-273
# NCI-H23 = test system: NCI-H23
# NCI-H522 = test system: NCI-H522
# SK-MEL-5 = test system: SK-MEL-5
# SK-OV-3 = test system: SK-OV-3
smiles,measurement,setting,value
N#CSCc1nc2ccc(Cl)cc2c(-c2ccccc2)[n+]1[O-],GI50,786-0,18.2 µM (inactive)
same,GI50,A498,> 100 µM (inactive)
same,GI50,A549,33.8 µM (inactive)
same,GI50,ACHN,16.9 µM (inactive)
same,GI50,CAKI-1,25.8 µM (inactive)
same,GI50,CCRF-CEM,14.5 µM (inactive)
same,GI50,COLO 205,60.1 µM (inactive)
same,GI50,DMS-114,24.5 µM (inactive)
same,GI50,EKVX,23.2 µM (inactive)
same,GI50,HCC 2998,15.6 µM (inactive)
same,GI50,HCT-116,19.7 µM (inactive)
same,GI50,HCT-15,17.3 µM
same,GI50,HL-60,21.5 µM (inactive)
same,GI50,HOP-18,19.5 µM (inactive)
same,GI50,HOP-62,> 100 µM (inactive)
same,GI50,HOP-92,16 µM (inactive)
same,GI50,HT-29,20 µM (inactive)
same,GI50,IGROV-1,> 10 µM (inactive)
same,GI50,K562,25.7 µM (inactive)
same,GI50,KM-20L2,16.6 µM (inactive)
same,GI50,KM12,22 µM (inactive)
same,GI50,LOX IMVI,18 µM (inactive)
same,GI50,LXFL 529,13.9 µM (inactive)
same,GI50,M14,21.9 µM (inactive)
same,GI50,M19-MEL,31.8 µM (inactive)
same,GI50,MOLT-4,14.6 µM (inactive)
same,GI50,Malme-3M,24.6 µM (inactive)
same,GI50,NCI-H226,33.7 µM (inactive)
same,GI50,NCI-H460,40.3 µM (inactive)
same,GI50,OVCAR-3,26.8 µM (inactive)
same,GI50,OVCAR-4,25.5 µM (inactive)
same,GI50,OVCAR-5,21 µM (inactive)
same,GI50,OVCAR-8,19.7 µM (inactive)
same,GI50,RPMI-8226,25.3 µM (inactive)
same,GI50,RXF 393,12.7 µM (inactive)
same,GI50,RXF 631,37.9 µM (inactive)
same,GI50,SF-268,25.7 µM (inactive)
same,GI50,SF-295,35.2 µM (inactive)
same,GI50,SF-539,> 10 µM (inactive)
same,GI50,SK-MEL-28,14.5 µM (inactive)
same,GI50,SK-MEL-2,20.1 µM (inactive)
same,GI50,SN12C,20 µM (inactive)
same,GI50,SNB-19,41.6 µM (inactive)
same,GI50,SNB-75,32.7 µM (inactive)
same,GI50,SNB-78,36.9 µM (inactive)
same,GI50,SR,24.9 µM (inactive)
same,GI50,SW-620,16.6 µM (inactive)
same,GI50,TK-10,> 100 µM (inactive)
same,GI50,U-251,29.4 µM (inactive)
same,GI50,UACC-257,42.3 µM (inactive)
same,GI50,UACC-62,19.2 µM (inactive)
same,GI50,UO-31,18.7 µM (inactive)
same,GI50,XF498,17.4 µM (inactive)
O=C(O)CNS(=O)(=O)c1ccc(NC(=O)CI)cc1,GI50,786-0,14.9 µM (inactive)
same,GI50,A498,> 100 µM (inactive)
same,GI50,A549,91.2 µM (inactive)
same,GI50,ACHN,52 µM (inactive)
same,GI50,CAKI-1,40.7 µM (inactive)
same,GI50,CCRF-CEM,2.33 µM (inactive)
same,GI50,COLO 205,26.2 µM (inactive)
same,GI50,DLD-1,26.9 µM (inactive)
same,GI50,DMS-273,17.7 µM (inactive)
same,GI50,EKVX,32.7 µM (inactive)
same,GI50,HCC 2998,> 100 µM (inactive)
same,GI50,HCT-15,17.6 µM
same,GI50,HL-60,18.2 µM (inactive)
same,GI50,HOP-18,34.3 µM (inactive)
same,GI50,HOP-92,19.4 µM (inactive)
same,GI50,HT-29,21.2 µM (inactive)
same,GI50,IGROV-1,26.5 µM (inactive)
same,GI50,K562,10.2 µM (inactive)
same,GI50,KM-20L2,23.1 µM (inactive)
same,GI50,KM12,24.8 µM (inactive)
same,GI50,LOX IMVI,19 µM (inactive)
same,GI50,LXFL 529,6.97 µM (inactive)
same,GI50,M14,18.6 µM (inactive)
same,GI50,M19-MEL,32.4 µM (inactive)
same,GI50,MOLT-4,12.1 µM (inactive)
same,GI50,Malme-3M,18.8 µM (inactive)
same,GI50,NCI-H226,> 100 µM (inactive)
same,GI50,NCI-H23,18.3 µM (inactive)
same,GI50,NCI-H460,25.7 µM (inactive)
same,GI50,NCI-H522,2.16 µM (inactive)
same,GI50,OVCAR-3,24 µM (inactive)
same,GI50,OVCAR-4,18 µM (inactive)
same,GI50,OVCAR-5,27.6 µM (inactive)
same,GI50,OVCAR-8,21.1 µM (inactive)
same,GI50,RPMI-8226,15.7 µM (inactive)
same,GI50,RXF 393,15.5 µM (inactive)
same,GI50,RXF 631,16.4 µM (inactive)
same,GI50,SF-268,18.8 µM (inactive)
same,GI50,SF-295,26.3 µM (inactive)
same,GI50,SF-539,16.1 µM (inactive)
same,GI50,SK-MEL-28,24.4 µM (inactive)
same,GI50,SK-MEL-2,23.3 µM (inactive)
same,GI50,SK-MEL-5,22.2 µM (inactive)
same,GI50,SK-OV-3,33.8 µM (inactive)
same,GI50,SN12C,32.5 µM (inactive)
same,GI50,SNB-19,58.2 µM (inactive)
same,GI50,SNB-75,17.1 µM (inactive)
same,GI50,SW-620,13.2 µM (inactive)
same,GI50,TK-10,63 µM (inactive)
same,GI50,U-251,19.1 µM (inactive)
same,GI50,UACC-257,42.5 µM (inactive)
same,GI50,UACC-62,25.1 µM (inactive)
same,GI50,UO-31,20 µM (inactive)
same,GI50,XF498,14.6 µM (inactive)
